Assay results as given in patent US20130210907A1, “METHOD FOR PREVENTING OR TREATING ENTEROCHROMAFFIN CELL HYPERPLASIA-RELATED DISEASES BY QUERCETIN ADMINISTRATION” (HONG KONG BAPTIST UNIVERSITY, priority 2012, published 2013).

Assays:
[1] = test system: normal rats; assay: Pain threshold pressure in normal rats; type: in vivo, rat; conditions: 10 mg/kg i.g., 14 days
Protocol: AWR test is performed as previously described in Al-Chaer E D, Kawasaki M, Pasricha P J. A new model of chronic visceral hypersensitivity in adult rats induced by colon irritation during postnatal development. Gastroenterology. 2000 November; 119(5):1276-85. Briefly, rats are lightly anesthetized with ether; a latex balloon is inserted into the descending colon. Rats are then allowed to recover for about 1 h. The tube of the balloon is connected via a Y-connector to a sphygmomanometer and colorectal distension is applied in increments of 5 mmHg until a visible contraction of the abdominal wall is observed by an investigator blinded to the treatment. […] The pain threshold pressure of all groups is recorded and repeated five times with intervals of at least 5 minutes for recovery. […] The changes of area under the curve (AUC) are calculated using that during 20 s distension period over the 20 s baseline.
(§1) To identify whether the effects of Quercerin in PI-IBS rats are specific, pain threshold pressure, colonic EC cell number and 5-HT content are further evaluated in normal rats treated with Quercetin. […] After the final drug administration, pain threshold pressure, colonic EC cell density and 5-HT content are evaluated and the methods used here are as same as that shown in above experiments.

[2] = test system: PI-IBS rats; assay: Electron microscopy of EC cell secretory granules after CRD; type: in vivo, rat; conditions: median dose
Protocol: For electron microscopy evaluation, the colon tissues are collected from the rats treated with AWR test so as to investigate the feature of mechanical stimulus-induced 5-HT release. Colon segment is fixed for 24 h at 4° C. in fixative containing 4% paraformaldehyde and 0.2% picric acid in 0.1M PB, then washed and embedded in gelatin. Thin sections are cut and picked up on 200-mesh grids. The sections are stained with uranyl acetate and lead citrate. Examination and photography of sections are carried out using Philips CM 10 transmission electron microscope (Philips Scientifics, Netherlands). At the ultra-structural level, EC cell are distinguished from other enteroendocrine cells by the pleomorphic nature of their secretory granules. The EC cells in which there are many clear secretory granules without cores and granules with eccentric cores are considered as the activated one with excessive 5-HT release.

[3] = test system: QGP-1 cells; assay: Sub-G0/G1 fraction by flow cytometry; type: cell-based, human; conditions: QGP-1, 25~100 μM, 24 h
Protocol: (§2) QGP-1 cells are seeded at a density of 10×10^4 cells/ml and pre-incubated overnight. After incubation with or without Quercetin (0-100 μM) for 24 h, cells are harvested by trypsinization and fixed in 70% ethanol at 4° C. overnight. The cells are centrifuged to remove ethanol and washed twice using ice-cold PBS. The cell pallets are resuspended in 500 n1 propidium iodide solution (0.1% Triton X-100, 50 μg/ml propidium iodide in PBS) containing 50 μg/ml RNase and incubated at 37° C. for 30 min and protected from the light. The DNA content of 10,000 cells is detected by BD FASCanto Flow Cytometry and analyzed using CellFit software (Becton Dickinson, Heidelberg, Germany). The data are representative of those obtained in at least three experiments.
For flow cytometric analysis, cells with sub-G0/G1 DNA content are stained with propidium iodide, and the methods are as described in section 2 of Example 8. […] Based on the results form LDH assay and apoptosis detection, Quercetin indeed has cytotoxicity and can further induce cell apoptosis.

[4] = test system: QGP-1 cells; assay: Cell cycle analysis by flow cytometry (propidium iodide); type: cell-based, human; conditions: 24 h
Protocol: as §2, with “CellFit” left out

[5] = test system: normal rats; assay: Colonic 5-HT content in normal rats; type: in vivo, rat; conditions: 10 mg/kg i.g., 14 days
Protocol: 5-HT content in the colon tissue is assayed based on our previously reported procedure in Qi S D, Tian S L, Xu H X, Sung J J, Bian Z X. Quantification of luminally released serotonin in rat proximal colon by capillary electrophoresis with laser-induced fluorescence detection. Anal Bioanal Chem. 2009 April; 393(8):2059-66. Briefly, the colon segment is homogenized in 15% iced trichloroacetic acid; for 2 min and stored at 4° C. for 2 h. After centrifuge at 10,000 G for 15 min, the supernatant of each sample is filtered using 0.22 μm filters and extracted with diethyl ether for five times to remove the trichloroacetic acid. The prepared samples are added to derivatization solution (150 mM sodium tetraborate, 25% acetonitrile, 2 mM CFSE) and incubated for […] in dark at room temperature. The 5-HT content is analyzed by capillary electrophoresis with laser-induced fluorescence detection and expressed as nanogram per milligram (wet weight of tissue).
as §1

## O=c1c(O)c(-c2ccc(O)c(O)c2)oc2cc(O)cc(O)c12 [Quercetin, 2-(3,4-dihydroxyphenyl)-3,5,7-trihydroxy-4H-chromen-4-one]
[1]
  Pain threshold pressure: 37.9 ± 1.7 mmHg
[2]
  Secretory granules of EC cells compared to PI-IBS rats (electron micrographs): became denser
[3]
  Sub-G0/G1 fraction: concentration-dependently increases
[4]; QGP-1, 25 μM
  Cells in G0/G1 phase: 56.0 ± 3.5%
  Cells in G2/M phase: 21.8 ± 3.2%
  Cells in S phase: 22.3 ± 0.3%
[4]; QGP-1, 50 μM
  Cells in G0/G1 phase: 47.8 ± 4.0 %
  Cells in G2/M phase: 20.2 ± 4.29%
  Cells in S phase: 32.0 ± 0.4 %
[4]; QGP-1, 100 μM
  Cells in G0/G1 phase: 8.4 ± 1.7 %
  Cells in G2/M phase: 47.7 ± 2.2 %
  Cells in S phase: 43.9 ± 0.7 %
[5]
  5-HT content: 4.06 ± 0.48 ng/mg
